# Assay results: PubChem BioAssay (NCI)
#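 Tested at 5 concentrations; 48 h exposure; 96-well plates; endpoints linearly interpolated, else capped at highest concentration. Here, GI50 denotes the concentration required for 50% inhibition of growth. The concentration for full growth arrest is given as TGI.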 Where a SMILES comes first, the peptide text is derived from it.
# Legend:
# Assay in all cases: growth of human tumour cells (NCI), 48 h
# HOP-18 NSCLC = test system: HOP-18 NSCLC
# DLD-1 colon = test system: DLD-1 colon
# LXFL 529 NSCLC = test system: LXFL 529 NSCLC
# RXF-631 renal = test system: RXF-631 renal
# DMS 273 small cell lung = test system: DMS 273 small cell lung
# SNB-78 CNS = test system: SNB-78 CNS
# XF 498 CNS = test system: XF 498 CNS
# MDA-N = test system: MDA-N
# T-47D breast = test system: T-47D breast
SMILES,TGI (HOP-18 NSCLC),TGI (DLD-1 colon),TGI (LXFL 529 NSCLC),TGI (RXF-631 renal),TGI (DMS 273 small cell lung),TGI (SNB-78 CNS),TGI (XF 498 CNS),TGI (T-47D breast),other results
N=C1N(c2ccccc2)C(=O)C23CCCC2C13N1CCOCC1 (stereo unspecified),> 100 µM,> 100 µM,> 100 µM,> 100 µM,> 100 µM,> 100 µM,–,–,–
Cc1ccc([N+](=O)[O-])cc1NC(=O)C(=O)Cc1occc(=O)c1O,> 100 µM,> 100 µM,–,–,–,–,> 100 µM,–,–
NC(CNO)C(=O)O (stereo unspecified),–,–,–,–,–,–,–,> 100 µM,TGI (MDA-N): > 100 µM
C[C@@H](CO)OCOCc1ccccc1,–,> 100 µM,> 100 µM,–,> 100 µM,> 100 µM,> 100 µM,–,–
COc1cc(/C=C/C(=O)c2ccc(Nc3ncnc4ccccc34)cc2)cc(OC)c1,–,–,–,–,–,–,–,39.4 µM,GI50 (T-47D breast): 6.2 µM
COC(=O)C1=CN=C(C(=O)OC)NN1,> 100 µM,> 100 µM,> 100 µM,> 100 µM,–,–,> 100 µM,–,–
C/C=C/C=N/N(C(=O)c1cc([N+](=O)[O-])cc([N+](=O)[O-])c1)C1=NC(c2ccccc2)C(c2ccccc2)=NN1 (stereo unspecified),> 100 µM,> 100 µM,–,> 100 µM,> 100 µM,> 100 µM,> 100 µM,–,–
Cc1cc(C)c(O)c(Cc2cccc(Cc3cc(C)cc(C)c3O)c2O)c1,–,–,–,–,–,–,–,> 100 µM,TGI (MDA-N): > 100 µM
Cn1ncc2c(/N=C/c3cccs3)[nH]c(=S)nc21,–,–,–,–,–,–,–,> 100 µM,GI50 (T-47D breast): 35.9 µM
Cc1oc2c(C)c(O)c3c(c2c1C1(C)OCCO1)C(=O)C=C(Cl)C3=O,–,–,> 100 µM,> 100 µM,> 100 µM,> 100 µM,> 100 µM,–,–
O=C(Nc1n[nH]c2nc(-c3ccco3)ccc12)C1CC1,–,–,–,–,–,–,–,> 25 µM,GI50 (T-47D breast): > 25 µM
O=C(Nc1ccccc1)Nc1cccc(-n2cc(-c3ccncc3)c(-c3ccc(O)c(Cl)c3)n2)c1,–,–,–,–,–,–,–,25.8 µM,GI50 (T-47D breast): 4.34 µM
Cc1ccccc1NC(=O)C(=O)C(c1cnc2ccc([N+](=O)[O-])cc2n1)[N+](=O)[O-] (stereo unspecified),> 100 µM,> 100 µM,–,> 100 µM,> 100 µM,> 100 µM,–,–,–
COc1ccc(NC(=O)C(=O)C2CNC(=O)NC2=O)c(OC)c1 (stereo unspecified),> 100 µM,> 100 µM,> 100 µM,–,> 100 µM,> 100 µM,> 100 µM,–,–
CC(C)CC(NC(=O)C(CC(C)C)NC(=O)C(Cc1cnc[nH]1)NC(=O)C(C)NC(=O)C(NC(=O)C(C)NC(=O)C(Cc1c[nH]c2ccccc12)NC(=O)C(CCC(=O)O)NC(=O)C(N)Cc1ccccc1)C(C)C)C(N)=O (stereo unspecified) (H-FEWAVAHLL-NH2; configuration not given here),> 100 µM,> 100 µM,> 100 µM,> 100 µM,> 100 µM,> 100 µM,> 100 µM,> 12.5 µM,TGI (MDA-N): > 12.5 µM
COc1ccc(-c2cc(=O)c3c(OC)c(OC)c(OC)c(OC)c3o2)cc1OC,–,–,–,–,–,–,–,70.6 µM,TGI (MDA-N): > 100 µM
N#CC(=S)Nc1ccc(Cl)c(Cl)c1,–,–,–,–,–,–,–,> 74.8 µM,TGI (MDA-N): 88.3 µM
CN(C)C(=O)/N=c1\ss/c(=N\C(=S)N(C)C)n1-c1ccccc1,> 100 µM,> 100 µM,> 88.4 µM,> 100 µM,> 100 µM,> 100 µM,> 85.4 µM,–,GI50 (HOP-18 NSCLC): > 100 µM; GI50 (DMS 273 small cell lung): 30 µM

SMILES,TGI (HOP-18 NSCLC),TGI (DLD-1 colon),TGI (LXFL 529 NSCLC),TGI (RXF-631 renal),TGI (DMS 273 small cell lung),TGI (SNB-78 CNS),TGI (XF 498 CNS),TGI (T-47D breast),other results
NC(=O)N/N=C(\C(=O)C(=O)Nc1ccc(Cl)c(C(F)(F)F)c1)c1nc2ccc(C(=O)c3ccccc3)cc2[nH]c1=O,> 100 µM,–,–,–,> 100 µM,> 100 µM,64.1 µM,–,–
CCCCCCCC/C=C/CCCCCCCC1=NC(C)(C)CN1C(C)C,–,–,–,–,–,–,–,3.27 µM,GI50 (T-47D breast): 1.62 µM
Nc1ncnc(NC2C=C(CO)C(O)C2O)c1[N+](=O)[O-] (stereo unspecified),> 100 µM,> 100 µM,> 100 µM,> 100 µM,> 100 µM,> 100 µM,–,–,–
Clc1cc(Cl)c(Cl)c(-c2nc(-c3cccnc3)cs2)c1,–,–,–,–,–,–,–,65.4 µM,GI50 (T-47D breast): 12.7 µM
O=C(O)CC(Nc1ccccc1)C(=O)O (stereo unspecified),–,–,–,–,–,–,–,> 100 µM,TGI (MDA-N): > 100 µM
C=C[C@]1(C)CCC2=C(CCC3C2(C)CCC[C@]3(C)CO)C1 (stereo partly specified),> 100 µM,> 100 µM,> 100 µM,> 100 µM,> 100 µM,> 100 µM,> 100 µM,–,–
C#CCN=C(N/N=C/c1ccc([N+](=O)[O-])o1)NS(=O)(=O)c1cc(C)c(Cl)cc1SCC(N)=O,–,–,–,–,–,–,–,34.9 µM,GI50 (T-47D breast): 18.8 µM
COC(=O)C(C(=O)C(=O)NC1=C(Cl)C(=O)c2ccccc2C1=O)c1csc(-n2nc(-c3ccccc3)cc2-c2ccccc2)n1 (stereo unspecified),> 100 µM,> 100 µM,> 100 µM,> 100 µM,> 100 µM,> 100 µM,> 100 µM,–,–
CN(C)CCCN(c1nc(C(Cl)(Cl)Cl)ns1)c1nc(C(Cl)(Cl)Cl)ns1,–,–,–,–,–,–,–,10.5 µM,GI50 (T-47D breast): 2.98 µM
CC#CS(=O)(=O)c1ccccc1,–,–,–,–,–,–,–,6.22 µM,–
Oc1ccc(CNCc2ccccc2)c2cccnc12,–,–,–,–,–,–,–,–,TGI (MDA-N): > 100 µM
COC(=O)/C(C#N)=C1\CCC(O)N1C (stereo unspecified),> 100 µM,> 100 µM,> 100 µM,–,–,> 100 µM,> 100 µM,–,–
C/C(CC(=O)NNc1ccc([N+](=O)[O-])cc1)=N\Nc1ccc([N+](=O)[O-])cc1,–,–,–,–,–,–,–,> 100 µM,GI50 (T-47D breast): 3.71 µM
COc1ccc2c(c1)CCc1c(-c3noc4c3CCc3cc(OC)ccc3-4)noc1-2,–,–,–,–,–,–,–,> 100 µM,TGI (MDA-N): > 100 µM
CCCc1cc2cc(-n3nc(C)c4c3CC(C)(C)CC4=O)cc(NC3CCC(O)CC3)c2c(=O)[nH]1 (stereo unspecified),–,–,–,–,–,–,–,> 100 µM,GI50 (T-47D breast): 0.0994 µM
O=C(O)C1NCCc2c1[nH]c1ccccc21 (stereo unspecified),> 100 µM,> 100 µM,> 100 µM,> 100 µM,> 100 µM,> 100 µM,–,> 10 µM,TGI (MDA-N): > 10 µM
COC(=O)C(=O)C(C(=O)C(=O)Nc1ccc(Cl)cc1C)c1nc2ccc(C(=O)c3ccccc3)cc2[nH]c1=O (stereo unspecified),> 100 µM,> 100 µM,> 100 µM,> 100 µM,> 100 µM,> 100 µM,–,–,–
